According to US20170190671A1, “BIS(ARYL)CATECHOL DERIVATIVES AS HERBICIDES” (E I DU PONT DE NEMOURS AND COMPANY, priority 2014, published 2017):

Assays:
Test in all cases: Test D preemergence
Assay type in all cases: in vivo
Conditions in all cases: scale 0 to 100
[1] = system: oilseed rape (Brassica napus)
Source text: (§1) Seeds of plant species selected from bluegrass (annual bluegrass, Poa annua), blackgrass (Alopecurus myosuroides), canarygrass (Phalaris minor), chickweed (common chickweed, Stellaria media), cutleaf geranium (Geranium dissectum), galium (catchweed bedstraw, Galium aparine), downy bromegrass (Bromus tectorum), field poppy (Papaver rhoeas), field violet (Viola arvensis), green foxtail (Setaria viridis), deadnettle (henbit deadnettle, Lamium amplexicaule), Italian ryegrass (Lolium multiflorum), kochia (Kochia scoparia), lambsquarters (Chenopodium album), oilseed rape (Brassica napus), pigweed (Amaranthus retroflexus), chamomile (scentless chamomile, Matricaria inodora), Russian thistle (Salsola kali), speedwell (bird's-eye speedwell, Veronica persica), spring barley (Hordeum vulgare), spring wheat (Triticum aestivum), wild buckwheat (Polygonum convolvulus), wild mustard (Sinapis arvensis), wild oat (Avenafatua), wild radish (Raphanus raphanistrum), windgrass (Apera spica-venti), winter barley (Hordeum vulgare), and winter wheat (Triticum aestivum) were planted into a silt loam soil and treated preemergence with test chemicals formulated in a non-phytotoxic solvent mixture which included a surfactant.
(§2) At the same time, these species were planted in pots containing Redi-Earth® planting medium (Scotts Company, 14111 Scottslawn Road, Marysville, Ohio 43041) comprising spaghnum peat moss, vermiculite, wetting agent and starter nutrients and treated with postemergence applications of the test chemicals formulated in the same manner. Plants ranged in height from 2 to 18 cm (1- to 4-leaf stage). Treated plants and controls were maintained in a controlled growth environment for 14 to 21 days after which time all species were compared to controls and visually evaluated. Plant response ratings, summarized in Table D, are based on a scale of 0 to 100 where 0 is no effect and 100 is complete control. A dash (-) response means no test result.

[2] = system: windgrass (Apera spica-venti)
Source text: as §1, §2

[3] = system: downy bromegrass (Bromus tectorum)
Source text: as §1, §2

[4] = system: field violet (Viola arvensis)
Source text: as §1, §2

[5] = system: blackgrass (Alopecurus myosuroides)
Source text: as §1, §2

[6] = system: deadnettle (henbit deadnettle, Lamium amplexicaule)
Source text: as §1, §2

[7] = system: winter barley (Hordeum vulgare)
Source text: as §1, §2

[8] = system: wild buckwheat (Polygonum convolvulus)
Source text: as §1, §2

[9] = system: green foxtail (Setaria viridis)
Source text: as §1, §2

[10] = system: wild mustard (Sinapis arvensis)
Source text: as §1, §2

[11] = system: speedwell (bird's-eye speedwell, Veronica persica)
Source text: as §1, §2

[12] = system: winter wheat (Triticum aestivum)
Source text: as §1, §2

kochia (Kochia scoparia) = system: kochia (Kochia scoparia)
Source text: as §1, §2

[13] = system: lambsquarters (Chenopodium album)
Source text: as §1, §2

[14] = system: wild radish (Raphanus raphanistrum)
Source text: as §1, §2

[15] = system: Italian ryegrass (Lolium multiflorum)
Source text: as §1, §2

Compound: N#Cc1cccc(Oc2ncc(Cl)cn2)c1Oc1ncc(Cl)cn1 [Compound 3, 2,3-bis[(5-chloro-2-pyrimidinyl)oxy]benzonitrile]
- Plant response rating, Oilseed Rape ([1]; 16 g ai/ha): 10
- Plant response rating, Oilseed Rape ([1]; 31 g ai/ha): 25
- Plant response rating, Oilseed Rape ([1]; 62 g ai/ha): 35
- Plant response rating, Oilseed Rape ([1]; 125 g ai/ha): 100
- Plant response rating, Windgrass ([2]; 16 g ai/ha): 10
- Plant response rating, Windgrass ([2]; 31 g ai/ha): 15
- Plant response rating, Windgrass ([2]; 62 g ai/ha): 50
- Plant response rating, Windgrass ([2]; 125 g ai/ha): 80
- Plant response rating, Bromegrass, Downy ([3]; 16 g ai/ha): 0
- Plant response rating, Bromegrass, Downy ([3]; 31 g ai/ha): 0
- Plant response rating, Bromegrass, Downy ([3]; 62 g ai/ha): 5
- Plant response rating, Bromegrass, Downy ([3]; 125 g ai/ha): 15
- Plant response rating, Field Violet ([4]; 16 g ai/ha): 100
- Plant response rating, Field Violet ([4]; 31 g ai/ha): 100
- Plant response rating, Field Violet ([4]; 62 g ai/ha): 100
- Plant response rating, Field Violet ([4]; 125 g ai/ha): 100
- Plant response rating, Blackgrass ([5]; 16 g ai/ha): 0
- Plant response rating, Blackgrass ([5]; 31 g ai/ha): 10
- Plant response rating, Blackgrass ([5]; 62 g ai/ha): 35
- Plant response rating, Blackgrass ([5]; 125 g ai/ha): 70
- Plant response rating, Deadnettle ([6]; 16 g ai/ha): 70
- Plant response rating, Deadnettle ([6]; 31 g ai/ha): 95
- Plant response rating, Deadnettle ([6]; 62 g ai/ha): 100
- Plant response rating, Deadnettle ([6]; 125 g ai/ha): 100
- Plant response rating, Barley, Winter ([7]; 16 g ai/ha): 0
- Plant response rating, Barley, Winter ([7]; 31 g ai/ha): 0
- Plant response rating, Barley, Winter ([7]; 62 g ai/ha): 20
- Plant response rating, Barley, Winter ([7]; 125 g ai/ha): 70
- Plant response rating, Buckwheat, Wild ([8]; 16 g ai/ha): 0
- Plant response rating, Buckwheat, Wild ([8]; 31 g ai/ha): 30
- Plant response rating, Buckwheat, Wild ([8]; 62 g ai/ha): 75
- Plant response rating, Buckwheat, Wild ([8]; 125 g ai/ha): 100
- Plant response rating, Foxtail, Green ([9]; 16 g ai/ha): 10
- Plant response rating, Foxtail, Green ([9]; 31 g ai/ha): 60
- Plant response rating, Foxtail, Green ([9]; 62 g ai/ha): 100
- Plant response rating, Foxtail, Green ([9]; 125 g ai/ha): 100
- Plant response rating, Mustard, Wild ([10]; 16 g ai/ha): 15
- Plant response rating, Mustard, Wild ([10]; 31 g ai/ha): 60
- Plant response rating, Mustard, Wild ([10]; 62 g ai/ha): 95
- Plant response rating, Mustard, Wild ([10]; 125 g ai/ha): 100
- Plant response rating, Speedwell ([11]; 16 g ai/ha): 70
- Plant response rating, Speedwell ([11]; 31 g ai/ha): 100
- Plant response rating, Speedwell ([11]; 62 g ai/ha): 100
- Plant response rating, Speedwell ([11]; 125 g ai/ha): 100
- Plant response rating, Wheat, Winter ([12]; 16 g ai/ha): 0
- Plant response rating, Wheat, Winter ([12]; 31 g ai/ha): 0
- Plant response rating, Wheat, Winter ([12]; 62 g ai/ha): 5
- Plant response rating, Wheat, Winter ([12]; 125 g ai/ha): 10
- Plant response rating, Kochia (kochia (Kochia scoparia); 16 g ai/ha): 100
- Plant response rating, Kochia (kochia (Kochia scoparia); 31 g ai/ha): 100
- Plant response rating, Kochia (kochia (Kochia scoparia); 62 g ai/ha): 100
- Plant response rating, Kochia (kochia (Kochia scoparia); 125 g ai/ha): 100
- Plant response rating, Lambsquarters ([13]; 16 g ai/ha): 10
- Plant response rating, Lambsquarters ([13]; 31 g ai/ha): 95
- Plant response rating, Lambsquarters ([13]; 62 g ai/ha): 100
- Plant response rating, Lambsquarters ([13]; 125 g ai/ha): 100
- Plant response rating, Radish, Wild ([14]; 16 g ai/ha): 30
- Plant response rating, Radish, Wild ([14]; 31 g ai/ha): 80
- Plant response rating, Radish, Wild ([14]; 62 g ai/ha): 100
- Plant response rating, Radish, Wild ([14]; 125 g ai/ha): 100
- Plant response rating, Ryegrass, Italian ([15]; 16 g ai/ha): 0
- Plant response rating, Ryegrass, Italian ([15]; 31 g ai/ha): 0
- Plant response rating, Ryegrass, Italian ([15]; 62 g ai/ha): 50
- Plant response rating, Ryegrass, Italian ([15]; 125 g ai/ha): 40

Compound: Fc1cccc(Oc2ncc(C(F)(F)F)cn2)c1Oc1ncc(Cl)cn1 [Compound 42, 5-chloro-2-[2-fluoro-6-[[5-(trifluoromethyl)-2-pyrimidinyl]oxy]phenoxy]pyrimidine]
- Plant response rating, Oilseed Rape ([1]; 16 g ai/ha): 50
- Plant response rating, Oilseed Rape ([1]; 31 g ai/ha): 70
- Plant response rating, Oilseed Rape ([1]; 62 g ai/ha): 100
- Plant response rating, Oilseed Rape ([1]; 125 g ai/ha): 100
- Plant response rating, Windgrass ([2]; 16 g ai/ha): 15
- Plant response rating, Windgrass ([2]; 31 g ai/ha): 60
- Plant response rating, Windgrass ([2]; 62 g ai/ha): 90
- Plant response rating, Windgrass ([2]; 125 g ai/ha): 100
- Plant response rating, Bromegrass, Downy ([3]; 16 g ai/ha): 0
- Plant response rating, Bromegrass, Downy ([3]; 31 g ai/ha): 10
- Plant response rating, Bromegrass, Downy ([3]; 62 g ai/ha): 50
- Plant response rating, Bromegrass, Downy ([3]; 125 g ai/ha): 65
- Plant response rating, Field Violet ([4]; 16 g ai/ha): 25
- Plant response rating, Field Violet ([4]; 31 g ai/ha): 100
- Plant response rating, Field Violet ([4]; 62 g ai/ha): 100
- Plant response rating, Field Violet ([4]; 125 g ai/ha): 100
- Plant response rating, Blackgrass ([5]; 16 g ai/ha): 0
- Plant response rating, Blackgrass ([5]; 31 g ai/ha): 10
- Plant response rating, Blackgrass ([5]; 62 g ai/ha): 35
- Plant response rating, Blackgrass ([5]; 125 g ai/ha): 75
- Plant response rating, Deadnettle ([6]; 16 g ai/ha): 70
- Plant response rating, Deadnettle ([6]; 31 g ai/ha): 85
- Plant response rating, Deadnettle ([6]; 62 g ai/ha): 100
- Plant response rating, Deadnettle ([6]; 125 g ai/ha): 100
- Plant response rating, Barley, Winter ([7]; 16 g ai/ha): 0
- Plant response rating, Barley, Winter ([7]; 31 g ai/ha): 0
- Plant response rating, Barley, Winter ([7]; 62 g ai/ha): 15
- Plant response rating, Barley, Winter ([7]; 125 g ai/ha): 80
- Plant response rating, Buckwheat, Wild ([8]; 16 g ai/ha): 0
- Plant response rating, Buckwheat, Wild ([8]; 31 g ai/ha): 0
- Plant response rating, Buckwheat, Wild ([8]; 62 g ai/ha): 100
- Plant response rating, Buckwheat, Wild ([8]; 125 g ai/ha): 100
- Plant response rating, Foxtail, Green ([9]; 16 g ai/ha): 10
- Plant response rating, Foxtail, Green ([9]; 31 g ai/ha): 60
- Plant response rating, Foxtail, Green ([9]; 62 g ai/ha): 100
- Plant response rating, Foxtail, Green ([9]; 125 g ai/ha): 100
- Plant response rating, Mustard, Wild ([10]; 16 g ai/ha): 70
- Plant response rating, Mustard, Wild ([10]; 31 g ai/ha): 65
- Plant response rating, Mustard, Wild ([10]; 62 g ai/ha): 85
- Plant response rating, Mustard, Wild ([10]; 125 g ai/ha): 100
- Plant response rating, Wheat, Winter ([12]; 16 g ai/ha): 0
- Plant response rating, Wheat, Winter ([12]; 31 g ai/ha): 0
- Plant response rating, Wheat, Winter ([12]; 62 g ai/ha): 0
- Plant response rating, Wheat, Winter ([12]; 125 g ai/ha): 50
- Plant response rating, Kochia (kochia (Kochia scoparia); 16 g ai/ha): 35
- Plant response rating, Kochia (kochia (Kochia scoparia); 31 g ai/ha): 65
- Plant response rating, Kochia (kochia (Kochia scoparia); 62 g ai/ha): 100
- Plant response rating, Kochia (kochia (Kochia scoparia); 125 g ai/ha): 100
- Plant response rating, Lambsquarters ([13]; 16 g ai/ha): 85
- Plant response rating, Lambsquarters ([13]; 31 g ai/ha): 100
- Plant response rating, Lambsquarters ([13]; 62 g ai/ha): 100
- Plant response rating, Lambsquarters ([13]; 125 g ai/ha): 100
- Plant response rating, Radish, Wild ([14]; 16 g ai/ha): 25
- Plant response rating, Radish, Wild ([14]; 62 g ai/ha): 85
- Plant response rating, Radish, Wild ([14]; 125 g ai/ha): 100
- Plant response rating, Ryegrass, Italian ([15]; 16 g ai/ha): 0
- Plant response rating, Ryegrass, Italian ([15]; 31 g ai/ha): 0
- Plant response rating, Ryegrass, Italian ([15]; 62 g ai/ha): 35
- Plant response rating, Ryegrass, Italian ([15]; 125 g ai/ha): 70
